In paper PMC5290327, “SC83288 is a clinical development candidate for the treatment of severe malaria” (Nature Communications, 2017):

How the values were obtained:
Test in all cases: KINOMEscan
Assay type in all cases: binding
Conditions in all cases: read-out: Remaining enzyme activity
[1] = target: T1, ABL1(M351T) (Homo sapiens, UniProt P00519, M351T)
T1 construct: purchased Ambit (DiscoverX) KINOMEscan; Cerep
Summary of the method: (§1)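 Binding, not activity: the compound competes with an active-site directed ligand on beads for DNA-tagged human kinase. Quantitative PCR of the tag gives the kinase recovered. Single concentration, 10 μM SC81458.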

[2] = target: T2, ACVRL1 (Homo sapiens, UniProt P37023)
T2 construct: purchased Ambit (DiscoverX) KINOMEscan; Cerep
Summary of the method: as §1

[3] = target: T3, AKT2 (Homo sapiens, UniProt P31751)
T3 construct: purchased Ambit (DiscoverX) KINOMEscan; Cerep
Summary of the method: as §1

[4] = target: T4, AMPK-alpha1 (Homo sapiens, UniProt Q13131)
T4 construct: purchased Ambit (DiscoverX) KINOMEscan; Cerep
Summary of the method: as §1

[5] = target: T5, AXL (Homo sapiens, UniProt P30530)
T5 construct: purchased Ambit (DiscoverX) KINOMEscan; Cerep
Summary of the method: as §1

[6] = target: T6, BMX (Homo sapiens, UniProt P51813)
T6 construct: purchased Ambit (DiscoverX) KINOMEscan; Cerep
T6 sequence (P51813 whole entry): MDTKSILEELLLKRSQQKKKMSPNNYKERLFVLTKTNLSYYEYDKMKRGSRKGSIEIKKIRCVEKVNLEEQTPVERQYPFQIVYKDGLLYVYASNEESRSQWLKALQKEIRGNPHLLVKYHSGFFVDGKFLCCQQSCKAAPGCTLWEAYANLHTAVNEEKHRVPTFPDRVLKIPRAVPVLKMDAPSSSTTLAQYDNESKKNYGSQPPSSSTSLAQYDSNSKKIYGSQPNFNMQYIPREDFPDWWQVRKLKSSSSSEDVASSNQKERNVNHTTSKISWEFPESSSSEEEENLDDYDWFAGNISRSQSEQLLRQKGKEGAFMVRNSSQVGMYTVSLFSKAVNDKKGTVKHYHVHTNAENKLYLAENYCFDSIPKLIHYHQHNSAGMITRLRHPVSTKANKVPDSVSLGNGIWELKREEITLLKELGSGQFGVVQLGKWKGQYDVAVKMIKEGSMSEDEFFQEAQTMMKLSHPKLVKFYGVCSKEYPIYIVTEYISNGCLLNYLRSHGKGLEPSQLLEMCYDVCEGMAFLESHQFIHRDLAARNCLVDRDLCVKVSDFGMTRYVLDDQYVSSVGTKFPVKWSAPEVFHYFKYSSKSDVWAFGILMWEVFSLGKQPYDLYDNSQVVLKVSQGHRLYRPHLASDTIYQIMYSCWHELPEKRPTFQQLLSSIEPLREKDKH
Summary of the method: as §1

[7] = target: T7, CAMK2a (Homo sapiens, UniProt Q9UQM7)
T7 construct: purchased Ambit (DiscoverX) KINOMEscan; Cerep
Summary of the method: as §1

[8] = target: T8, CAMK2d (Homo sapiens, UniProt Q13557)
T8 construct: purchased Ambit (DiscoverX) KINOMEscan; Cerep
T8 sequence (Q13557 whole entry): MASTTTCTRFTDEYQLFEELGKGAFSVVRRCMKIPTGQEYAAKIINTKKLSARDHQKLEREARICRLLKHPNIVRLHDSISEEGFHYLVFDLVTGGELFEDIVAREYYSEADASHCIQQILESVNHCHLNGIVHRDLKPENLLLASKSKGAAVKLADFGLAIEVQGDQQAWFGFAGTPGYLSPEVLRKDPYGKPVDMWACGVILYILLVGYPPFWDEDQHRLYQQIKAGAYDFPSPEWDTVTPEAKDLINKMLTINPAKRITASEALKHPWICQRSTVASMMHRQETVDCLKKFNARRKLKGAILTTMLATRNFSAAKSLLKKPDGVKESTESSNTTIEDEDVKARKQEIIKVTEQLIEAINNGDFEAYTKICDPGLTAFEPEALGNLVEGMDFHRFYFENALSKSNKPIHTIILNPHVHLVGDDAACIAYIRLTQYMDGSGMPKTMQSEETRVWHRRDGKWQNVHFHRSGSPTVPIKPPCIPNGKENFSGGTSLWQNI
Summary of the method: as §1

[9] = target: T9, CSF1R (Homo sapiens, UniProt P07333)
T9 construct: purchased Ambit (DiscoverX) KINOMEscan; Cerep
Summary of the method: as §1

[10] = target: T10, CSNK1g3 (Homo sapiens, UniProt Q9Y6M4)
T10 construct: purchased Ambit (DiscoverX) KINOMEscan; Cerep
Summary of the method: as §1

[11] = target: T11, DDR1 (Homo sapiens, UniProt Q08345)
T11 construct: purchased Ambit (DiscoverX) KINOMEscan; Cerep
T11 sequence (Q08345 19-913): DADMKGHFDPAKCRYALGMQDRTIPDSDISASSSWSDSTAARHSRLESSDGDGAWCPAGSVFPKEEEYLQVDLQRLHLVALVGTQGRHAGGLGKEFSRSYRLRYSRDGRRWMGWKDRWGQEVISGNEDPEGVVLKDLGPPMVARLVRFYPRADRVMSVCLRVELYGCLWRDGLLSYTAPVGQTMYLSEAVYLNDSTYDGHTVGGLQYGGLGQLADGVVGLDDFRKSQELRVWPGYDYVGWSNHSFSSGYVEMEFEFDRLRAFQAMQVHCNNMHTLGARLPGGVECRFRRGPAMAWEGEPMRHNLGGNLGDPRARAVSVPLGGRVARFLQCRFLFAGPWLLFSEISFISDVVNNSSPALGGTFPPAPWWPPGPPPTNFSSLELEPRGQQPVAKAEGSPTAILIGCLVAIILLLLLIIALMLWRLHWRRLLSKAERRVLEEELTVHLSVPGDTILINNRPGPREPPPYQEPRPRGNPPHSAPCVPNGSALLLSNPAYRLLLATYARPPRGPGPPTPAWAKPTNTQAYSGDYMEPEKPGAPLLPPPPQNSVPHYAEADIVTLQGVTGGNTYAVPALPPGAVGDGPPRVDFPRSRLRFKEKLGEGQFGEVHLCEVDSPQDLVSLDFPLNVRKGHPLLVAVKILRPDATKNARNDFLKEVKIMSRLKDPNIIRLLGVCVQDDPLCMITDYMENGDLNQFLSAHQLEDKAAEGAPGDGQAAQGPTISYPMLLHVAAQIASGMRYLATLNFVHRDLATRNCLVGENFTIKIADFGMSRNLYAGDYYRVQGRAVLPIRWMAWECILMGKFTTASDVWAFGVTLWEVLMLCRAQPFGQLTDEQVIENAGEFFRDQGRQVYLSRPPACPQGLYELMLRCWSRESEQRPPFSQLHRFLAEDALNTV
Summary of the method: as §1

[12] = target: T12, ERK5 (Homo sapiens, UniProt Q13164)
T12 construct: purchased Ambit (DiscoverX) KINOMEscan; Cerep
Summary of the method: as §1

[13] = target: T13, ERN1 (Homo sapiens, UniProt O75460)
T13 construct: purchased Ambit (DiscoverX) KINOMEscan; Cerep
Summary of the method: as §1

[14] = target: T14, FGFR1 (Homo sapiens, UniProt P11362)
T14 construct: purchased Ambit (DiscoverX) KINOMEscan; Cerep
Summary of the method: as §1

[15] = target: T15, GSK3b (Homo sapiens, UniProt P49841)
T15 construct: purchased Ambit (DiscoverX) KINOMEscan; Cerep
Summary of the method: as §1

[16] = target: T16, HCK (Homo sapiens, UniProt P08631)
T16 construct: purchased Ambit (DiscoverX) KINOMEscan; Cerep
T16 sequence (P08631 whole entry): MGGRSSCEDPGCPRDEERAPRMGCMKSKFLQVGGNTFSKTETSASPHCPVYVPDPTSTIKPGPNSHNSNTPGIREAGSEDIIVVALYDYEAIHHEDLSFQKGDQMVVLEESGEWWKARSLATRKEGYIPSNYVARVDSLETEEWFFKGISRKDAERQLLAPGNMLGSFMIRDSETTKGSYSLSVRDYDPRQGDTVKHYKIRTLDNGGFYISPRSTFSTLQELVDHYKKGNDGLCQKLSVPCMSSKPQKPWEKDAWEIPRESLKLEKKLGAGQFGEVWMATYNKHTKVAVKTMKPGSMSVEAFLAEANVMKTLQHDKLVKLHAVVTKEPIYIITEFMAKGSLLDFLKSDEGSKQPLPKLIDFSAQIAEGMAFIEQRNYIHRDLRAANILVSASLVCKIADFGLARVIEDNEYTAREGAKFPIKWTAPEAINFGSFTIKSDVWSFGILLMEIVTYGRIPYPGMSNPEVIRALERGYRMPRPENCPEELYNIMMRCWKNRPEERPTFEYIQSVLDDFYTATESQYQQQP
Summary of the method: as §1

[17] = target: T17, IRAK3 (Homo sapiens, UniProt Q9Y616)
T17 construct: purchased Ambit (DiscoverX) KINOMEscan; Cerep
T17 sequence (Q9Y616 whole entry): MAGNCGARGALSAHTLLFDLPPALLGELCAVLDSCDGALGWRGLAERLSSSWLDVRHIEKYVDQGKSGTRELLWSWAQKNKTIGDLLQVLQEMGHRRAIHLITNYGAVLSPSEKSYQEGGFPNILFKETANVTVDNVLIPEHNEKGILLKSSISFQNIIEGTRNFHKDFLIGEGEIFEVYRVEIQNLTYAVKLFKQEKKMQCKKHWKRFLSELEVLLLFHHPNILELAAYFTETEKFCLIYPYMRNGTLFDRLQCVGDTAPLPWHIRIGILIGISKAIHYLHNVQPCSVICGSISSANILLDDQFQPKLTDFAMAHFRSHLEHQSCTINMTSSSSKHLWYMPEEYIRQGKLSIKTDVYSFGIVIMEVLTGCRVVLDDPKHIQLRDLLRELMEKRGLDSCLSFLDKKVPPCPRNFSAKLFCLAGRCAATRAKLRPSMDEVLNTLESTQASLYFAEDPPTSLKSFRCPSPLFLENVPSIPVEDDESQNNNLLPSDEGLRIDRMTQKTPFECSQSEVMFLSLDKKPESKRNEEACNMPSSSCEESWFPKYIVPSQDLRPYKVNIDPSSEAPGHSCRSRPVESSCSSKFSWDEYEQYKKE
Summary of the method: as §1

[18] = target: T18, JNK1 (Homo sapiens, UniProt P45983)
T18 construct: purchased Ambit (DiscoverX) KINOMEscan; Cerep
Summary of the method: as §1

[19] = target: T19, LATS2 (Homo sapiens, UniProt Q9NRM7)
T19 construct: purchased Ambit (DiscoverX) KINOMEscan; Cerep
Summary of the method: as §1

[20] = target: T20, LZK (Homo sapiens, UniProt O43283)
T20 construct: purchased Ambit (DiscoverX) KINOMEscan; Cerep
Summary of the method: as §1

[21] = target: T21, MAP3K4 (Homo sapiens, UniProt Q9Y6R4)
T21 construct: purchased Ambit (DiscoverX) KINOMEscan; Cerep
Summary of the method: as §1

[22] = target: T22, MARK1 (Homo sapiens, UniProt Q9P0L2)
T22 construct: purchased Ambit (DiscoverX) KINOMEscan; Cerep
T22 sequence (Q9P0L2 whole entry): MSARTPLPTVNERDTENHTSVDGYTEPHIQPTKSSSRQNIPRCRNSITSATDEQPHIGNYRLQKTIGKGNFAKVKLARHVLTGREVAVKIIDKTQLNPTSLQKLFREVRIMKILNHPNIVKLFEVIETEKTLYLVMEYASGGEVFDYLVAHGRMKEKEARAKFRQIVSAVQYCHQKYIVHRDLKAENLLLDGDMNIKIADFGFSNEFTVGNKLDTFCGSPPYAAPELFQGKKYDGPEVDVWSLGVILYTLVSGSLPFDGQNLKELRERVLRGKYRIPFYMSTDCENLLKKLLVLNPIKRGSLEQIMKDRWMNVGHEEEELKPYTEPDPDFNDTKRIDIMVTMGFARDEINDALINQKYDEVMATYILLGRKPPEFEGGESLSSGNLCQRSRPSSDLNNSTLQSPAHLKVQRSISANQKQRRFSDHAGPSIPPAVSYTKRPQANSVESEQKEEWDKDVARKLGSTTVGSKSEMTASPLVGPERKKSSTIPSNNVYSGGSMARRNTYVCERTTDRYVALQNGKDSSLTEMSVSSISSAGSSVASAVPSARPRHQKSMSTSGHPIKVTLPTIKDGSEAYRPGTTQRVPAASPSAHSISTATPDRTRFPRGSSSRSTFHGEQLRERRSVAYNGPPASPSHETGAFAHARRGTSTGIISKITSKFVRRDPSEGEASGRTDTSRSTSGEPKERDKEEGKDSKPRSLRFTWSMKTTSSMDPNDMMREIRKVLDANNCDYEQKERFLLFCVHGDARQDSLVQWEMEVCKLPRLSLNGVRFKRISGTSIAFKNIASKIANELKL
Summary of the method: as §1

[23] = target: T23, MRCKB (Homo sapiens, UniProt Q9Y5S2)
T23 construct: purchased Ambit (DiscoverX) KINOMEscan; Cerep
Summary of the method: as §1

[24] = target: T24, MST1 (Homo sapiens, UniProt Q13043)
T24 construct: purchased Ambit (DiscoverX) KINOMEscan; Cerep
Summary of the method: as §1

[25] = target: T25, MST4 (Homo sapiens, UniProt Q9P289)
T25 construct: purchased Ambit (DiscoverX) KINOMEscan; Cerep
T25 sequence (Q9P289 whole entry): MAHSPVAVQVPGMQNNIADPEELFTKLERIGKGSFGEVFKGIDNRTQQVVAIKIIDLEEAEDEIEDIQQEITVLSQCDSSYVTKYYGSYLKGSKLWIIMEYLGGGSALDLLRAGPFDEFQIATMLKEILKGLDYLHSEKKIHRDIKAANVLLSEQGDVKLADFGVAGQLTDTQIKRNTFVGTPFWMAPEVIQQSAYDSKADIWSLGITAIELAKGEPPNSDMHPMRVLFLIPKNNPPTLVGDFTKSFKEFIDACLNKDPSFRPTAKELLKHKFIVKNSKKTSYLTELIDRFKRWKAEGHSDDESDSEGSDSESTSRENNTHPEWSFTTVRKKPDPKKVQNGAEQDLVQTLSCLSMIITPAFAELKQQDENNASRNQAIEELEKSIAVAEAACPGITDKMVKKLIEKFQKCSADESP
Summary of the method: as §1

[26] = target: T26, PAK4 (Homo sapiens, UniProt O96013)
T26 construct: purchased Ambit (DiscoverX) KINOMEscan; Cerep
T26 sequence (O96013 whole entry): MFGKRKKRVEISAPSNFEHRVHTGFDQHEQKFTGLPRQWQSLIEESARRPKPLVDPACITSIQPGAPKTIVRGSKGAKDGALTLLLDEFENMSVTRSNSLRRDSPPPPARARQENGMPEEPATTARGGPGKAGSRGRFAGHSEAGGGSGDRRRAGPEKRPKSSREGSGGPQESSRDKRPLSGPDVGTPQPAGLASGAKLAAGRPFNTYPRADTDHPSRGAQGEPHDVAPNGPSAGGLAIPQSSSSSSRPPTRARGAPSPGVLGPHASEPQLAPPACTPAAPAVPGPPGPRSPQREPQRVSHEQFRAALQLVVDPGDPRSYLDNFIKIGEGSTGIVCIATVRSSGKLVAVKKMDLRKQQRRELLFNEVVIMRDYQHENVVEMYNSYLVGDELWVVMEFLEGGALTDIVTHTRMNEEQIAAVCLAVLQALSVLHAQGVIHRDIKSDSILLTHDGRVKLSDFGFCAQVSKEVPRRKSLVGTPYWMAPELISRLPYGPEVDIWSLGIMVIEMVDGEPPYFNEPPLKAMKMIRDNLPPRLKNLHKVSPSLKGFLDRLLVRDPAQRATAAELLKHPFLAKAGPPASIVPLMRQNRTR
Summary of the method: as §1

[27] = target: T27, PIK3CA(Q546K) (Homo sapiens, UniProt P42336, Q546K)
T27 construct: purchased Ambit (DiscoverX) KINOMEscan; Cerep
Summary of the method: as §1

[28] = target: T28, PIK3Cg (Homo sapiens, UniProt P48736)
T28 construct: purchased Ambit (DiscoverX) KINOMEscan; Cerep
Summary of the method: as §1

[29] = target: T29, PRKR (Homo sapiens, UniProt P19525)
T29 construct: purchased Ambit (DiscoverX) KINOMEscan; Cerep
Summary of the method: as §1

[30] = target: T30, RPS6KA1(Kin.Dom.1-N-term) (Homo sapiens, UniProt Q15418)
T30 construct: RPS6KA1(Kin.Dom.1-N-term); purchased Ambit (DiscoverX) KINOMEscan; Cerep
Summary of the method: as §1

[31] = target: T31, TIE2 (Homo sapiens, UniProt Q02763)
T31 construct: purchased Ambit (DiscoverX) KINOMEscan; Cerep
Summary of the method: as §1

[32] = target: T32, TNK2 (Homo sapiens, UniProt Q07912)
T32 construct: purchased Ambit (DiscoverX) KINOMEscan; Cerep
Summary of the method: as §1

[33] = target: T33, TYRO3 (Homo sapiens, UniProt Q06418)
T33 construct: purchased Ambit (DiscoverX) KINOMEscan; Cerep
Summary of the method: as §1

[34] = target: T34, YANK3 (Homo sapiens, UniProt Q86UX6)
T34 construct: purchased Ambit (DiscoverX) KINOMEscan; Cerep
Summary of the method: as §1

Work on `CCCCN1CCN(C(=N)c2cccc(NC(=O)Nc3ccc(S(=O)(=O)NCc4ccc(S(N)(=O)=O)cc4)cc3)c2)CC1` [SC81458, 4-(3-(3-((4-butylpiperazin-1-yl)(imino)methyl)phenyl)ureido)-N-(4-sulfamoylbenzyl) benzenesulfonamide] yielded a remaining binding at 10 µM [1] of 100%, a remaining binding at 10 µM [2] of 72% and a remaining binding at 10 µM [3] of 84%. The remaining binding at 10 µM [4] was 100%, the remaining binding at 10 µM [5] was 100% and the remaining binding at 10 µM [6] was 100%. It also gave a remaining binding at 10 µM [7] of 100%, a remaining binding at 10 µM [8] of 90% and a remaining binding at 10 µM [9] of 82%. The remaining binding at 10 µM [10] was 100%, the remaining binding at 10 µM [11] was 91% and the remaining binding at 10 µM [12] was 100%. The remaining binding at 10 µM [13] was 100%, the remaining binding at 10 µM [14] was 100% and the remaining binding at 10 µM [15] was 100%. The remaining binding at 10 µM [16] was 100%, the remaining binding at 10 µM [17] was 69% and the remaining binding at 10 µM [18] was 98%. The remaining binding at 10 µM [19] was 100%, the remaining binding at 10 µM [20] was 100% and the remaining binding at 10 µM [21] was 100%. The remaining binding at 10 µM [22] was 100%, the remaining binding at 10 µM [23] was 99% and the remaining binding at 10 µM [24] was 100%. It also gave a remaining binding at 10 µM [25] of 100%, a remaining binding at 10 µM [26] of 100% and a remaining binding at 10 µM [27] of 100%. For the same compound, the remaining binding at 10 µM [28] was 92%, the remaining binding at 10 µM [29] was 91% and the remaining binding at 10 µM [30] was 100%. The remaining binding at 10 µM [31] was 100%, the remaining binding at 10 µM [32] was 94% and the remaining binding at 10 µM [33] was 79%. The remaining binding at 10 µM [34] was 97%.
